Where a name gives a salt, the structure may show the parent alone.
Experiments:
[1] = target: T1, GKRP (Glucokinase Regulatory Protein) with human His-hepatic GK (Homo sapiens, UniProt Q14397); assay: GKRP LC MS/MS Biochemical Assay; details: 13C-glucose-6-phosphate formation, 1 μM GKRP (10×), 30 nM GK (5×)
T1 sequence (Q14397 1-625): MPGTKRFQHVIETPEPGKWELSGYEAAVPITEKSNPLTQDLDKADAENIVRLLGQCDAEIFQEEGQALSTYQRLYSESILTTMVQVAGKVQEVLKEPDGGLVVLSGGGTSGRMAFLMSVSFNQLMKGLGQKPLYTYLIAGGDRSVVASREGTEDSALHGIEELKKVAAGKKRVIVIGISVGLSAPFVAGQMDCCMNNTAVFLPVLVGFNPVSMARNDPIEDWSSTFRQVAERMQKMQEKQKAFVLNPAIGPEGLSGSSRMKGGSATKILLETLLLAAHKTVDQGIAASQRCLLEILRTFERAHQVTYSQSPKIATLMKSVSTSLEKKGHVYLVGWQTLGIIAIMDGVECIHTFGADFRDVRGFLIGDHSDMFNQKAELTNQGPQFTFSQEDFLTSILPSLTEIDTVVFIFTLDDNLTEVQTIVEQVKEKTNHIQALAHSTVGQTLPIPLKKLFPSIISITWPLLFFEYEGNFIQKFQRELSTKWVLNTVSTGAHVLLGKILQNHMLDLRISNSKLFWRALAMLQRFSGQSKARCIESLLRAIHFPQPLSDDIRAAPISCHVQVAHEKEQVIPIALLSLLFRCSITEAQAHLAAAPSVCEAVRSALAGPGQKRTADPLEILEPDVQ
Procedure: GKRP LC MS/MS Biochemical Assay
This assay is used to directly measure the formation of ^13C-glucose-6-phosphate from ^13C-glucose by liquid chromatography-mass spectrometry (LC MS/MS). Begin by preparing the following solutions: Compound Buffer (CB): 50 mM Tris, pH 7.5/4 mM MgCl2/6% DMSO/fresh 10 mM DTT from 1M frozen stock. Enzyme Buffer (EB): 50 mM Tris, pH 7.5/4 mM MgCl2/6% DMSO/fresh 0.1% BSA/fresh 0.01% Brij-35 (10% BSA and 1% Brij-35 stock). GK (Glucokinase) Working Stock (5×): Dilute human His-hepatic GK to 30 nM in EB buffer. […] After 30 minutes add 10 μl of GK Working Stock (5×). Re-seal the plate and incubate for another 30 minutes at room temperature while mixing. After the second 30 minutes, stop the reaction by the addition of 50 μl of 100% acetonitrile, seal, and mix for 5-10 minutes. Run 10 μl of this sample through the LC MS/MS (API 3200, Applied Biosystems Inc., Carlsbad, Calif.).

[2] = target: T1, GKRP (Glucokinase Regulatory Protein) with human His-hepatic GK; assay: GKRP NADPH Coupled Assay; assay type: biochemical; details: indirect measure of glucose-6-phosphate, fluorescence, 1 μM GKRP (10×), 20 nM GK (5×)
In short: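 Human His-hepatic GK (5× stock 20 nM) in 50 mM Tris pH 7.5, 4 mM MgCl2, 6% DMSO, 0.1% BSA, 0.01% Brij-35, with GKRP and compound preincubated 30 min, then reaction 1 h at RT. Glucose-6-phosphate read indirectly via G6P dehydrogenase-coupled NADPH formation from β-NADP (2× stop/detection reagent, pH 9.2, 5 min).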

[3] = read-out: GK-GKRP EC50 (LC MS/MS)
[4] = read-out: GK-GKRP EC50 (NADPH-coupled)

Compound	EC50 ([1]; GK-GKRP EC50 (LC MS/MS)) [nM]	EC50 ([2]; GK-GKRP EC50 (NADPH-coupled)) [nM]	EC50 [1, 3] [nM]	EC50 [2, 4] [nM]
CC(O)(c1ccc(N2CCN(S(=O)(=O)c3cccs3)CC2COCc2cccnc2)cc1)C(F)(F)F (mixture of isomers) [Example 59, 1,1,1-trifluoro-2-(4-(2-((3-pyridinylmethoxy)methyl)-4-(2-thiophenylsulfonyl)-1-piperazinyl)phenyl)-2-propanol]	4930	4930	–	–
O=S(=O)(c1cccc(Cl)c1)N1CCN(c2ccc(C(O)(C(F)(F)F)C(F)(F)F)cc2)CC1 [Example 9, 2-(4-(4-(3-chlorophenylsulfonyl)piperazin-1-yl)phenyl)-1,1,1,3,3,3-hexafluoro-2-propanol]	3710	4410	–	–
O=S(=O)(c1ccccc1)N1CCN(c2ccc(C(O)(C(F)(F)F)C(F)(F)F)cn2)CC1 [Example 22, 1,1,1,3,3,3-hexafluoro-2-(6-(4-(phenylsulfonyl)-1-piperazinyl)-3-pyridinyl)-2-propanol]	2080	2730	–	–
CC(O)(c1ccc(N2CCN(S(=O)(=O)c3cccs3)CC2Cc2cccc(F)c2)cc1)C(F)(F)F (mixture of isomers) [Example 39, 1,1,1-trifluoro-2-(4-(2-(3-fluorobenzyl)-4-(2-thiophenylsulfonyl)-1-piperazinyl)phenyl)-2-propanol]	1090	802	–	–
O=S(=O)(c1cccs1)N1CCN(c2ccc(C(O)(C(F)(F)F)C(F)(F)F)cc2-c2ccccc2)CC1 [Example 69, 1,1,1,3,3,3-hexafluoro-2-(6-(4-(2-thiophenylsulfonyl)-1-piperazinyl)-3-biphenylyl)-2-propanol trifluoroacetate]	1750	2120	–	–
O=S(=O)(c1cccs1)N1CCN(c2ccc(C(O)(C(F)(F)F)C(F)(F)F)cc2-c2cccnc2)CC1 [Example 72, 1,1,1,3,3,3-hexafluoro-2-(3-(3-pyridinyl)-4-(4-(2-thiophenylsulfonyl)-1-piperazinyl)phenyl)-2-propanol]	783	775	–	–
O=S(=O)(c1ccsc1)N1CCN(c2ccc(C(O)(C(F)(F)F)C(F)(F)F)cc2)CC1 [Example 3, 1,1,1,3,3,3-hexafluoro-2-(4-(4-(3-thiophenylsulfonyl)-1-piperazinyl)phenyl)-2-propanol]	964	597	–	–
O=S(=O)(c1ccccc1Cl)N1CCN(c2ccc(C(O)(C(F)(F)F)C(F)(F)F)cc2)CC1 [Example 10, 2-(4-(4-((2-chlorophenyl)sulfonyl)-1-piperazinyl)phenyl)-1,1,1,3,3,3-hexafluoro-2-propanol]	2600	3950	–	–
CC(O)(c1ccc(N2CCN(S(=O)(=O)c3cccs3)CC2CC2CCOCC2)cc1)C(F)(F)F (single isomer, unassigned) [Example 37 Peak #2, 1,1,1-trifluoro-2-(4-(2-(tetrahydro-2H-pyran-4-ylmethyl)-4-(2-thiophenylsulfonyl)-1-piperazinyl)phenyl)-2-propanol]	128	124	–	–
CC(C)(CO)NCC1CN(S(=O)(=O)c2cccs2)CCN1c1ccc(C(C)(O)C(F)(F)F)cc1 (mixture of isomers) [Example 54, 2-methyl-2-(((4-(2-thiophenylsulfonyl)-1-(4-(2,2,2-trifluoro-1-hydroxy-1-methylethyl)phenyl)-2-piperazinyl)methyl)amino)-1-propanol]	–	–	2780	2970
CC(O)(c1ccc(N2CCN(S(=O)(=O)c3cccs3)CC2Cc2ccc(F)cc2)cc1)C(F)(F)F (mixture of isomers) [Example 40, 1,1,1-trifluoro-2-(4-(2-(4-fluorobenzyl)-4-(2-thiophenylsulfonyl)-1-piperazinyl)phenyl)-2-propanol]	1250	895	–	–
CC(O)(c1ccc(N2CCN(S(=O)(=O)c3ccccc3)CC2CC2CCOCC2)cc1)C(F)(F)F (stereo not shown) [Example 41, 1,1,1-trifluoro-2-(4-(4-(phenylsulfonyl)-2-(tetrahydro-2H-pyran-4-ylmethyl)-1-piperazinyl)phenyl)-2-propanol]	–	–	572	785
CC(O)(c1ccc(N2CCN(S(=O)(=O)c3ccccc3)CC2)cc1)C(F)(F)F (single isomer, unassigned) [Example 24 Peak #1, 1,1,1-trifluoro-2-(4-(4-(phenylsulfonyl)-1-piperazinyl)phenyl)-2-propanol]	2070	2570	–	–
C[C@H]1COCCN1C[C@H]1CN(S(=O)(=O)c2cccs2)CCN1c1ccc([C@@](C)(O)C(F)(F)F)cc1 [Example 45 Peak #2, 1,1,1-trifluoro-2-(4-((2S)-2-(((3S)-3-methyl-4-morpholinyl)methyl)-4-(2-thiophenylsulfonyl)-1-piperazinyl)phenyl)-2-propanol]	71	68	–	–
O=S(=O)(c1ccccc1)N1CCN(c2ccc(C(O)(C3CC3)C(F)(F)F)cc2)CC1 (racemic) [Example 15, 1-cyclopropyl-2,2,2-trifluoro-1-(4-(4-(phenylsulfonyl)-1-piperazinyl)phenyl)ethanol]	2770	2620	–	–
CC(O)(c1ccc(N2CCN(S(=O)(=O)c3cccs3)CC2CC2CCOCC2)cc1)C(F)(F)F (single isomer, unassigned) [Example 37 Peak #1, 1,1,1-trifluoro-2-(4-(2-(tetrahydro-2H-pyran-4-ylmethyl)-4-(2-thiophenylsulfonyl)-1-piperazinyl)phenyl)-2-propanol]	162	111	–	–
CC(C)CC1CN(S(=O)(=O)c2cccs2)CCN1c1ccc(C(C)(O)C(F)(F)F)cc1 (mixture of isomers) [Example 57, 1,1,1-trifluoro-2-(4-(2-(2-methylpropyl)-4-(2-thiophenylsulfonyl)-1-piperazinyl)phenyl)-2-propanol]	–	–	1020	655
CC(O)(c1ccc(N2CCN(S(=O)(=O)c3cccs3)CC2CN2CC(O)C2)cc1)C(F)(F)F (mixture of isomers) [Example 53, 1-((4-(2-thiophenylsulfonyl)-1-(4-(2,2,2-trifluoro-1-hydroxy-1-methylethyl)phenyl)-2-piperazinyl)methyl)-3-azetidinol]	1790	2260	–	–
Cc1cccc(CC2CN(S(=O)(=O)c3cccs3)CCN2c2ccc(C(O)(C(F)(F)F)C(F)(F)F)cc2)c1 (racemic) [Example 42, 1,1,1,3,3,3-hexafluoro-2-(4-(2-(3-methylbenzyl)-4-(2-thiophenylsulfonyl)-1-piperazinyl)phenyl)-2-propanol hydrochloride]	688	724	–	–
O=S(=O)(c1ccccc1)N1CCN(c2ccc(C(O)(C(F)(F)F)C(F)(F)F)cc2)CC1 [Example 2, 1,1,1,3,3,3-hexafluoro-2-(4-(4-(phenylsulfonyl)-1-piperazinyl)phenyl)-2-propanol]	1100	803	–	–
CC(O)(c1ccc(N2CCN(S(=O)(=O)c3cccs3)CC2Cc2ccccc2F)cc1)C(F)(F)F (mixture of isomers) [Example 38, 1,1,1-trifluoro-2-(4-(2-(2-fluorobenzyl)-4-(2-thiophenylsulfonyl)-1-piperazinyl)phenyl)-2-propanol]	850	515	–	–
CC(O)(c1ccc(N2CCN(S(=O)(=O)c3cccs3)CC2CN2CCOC(CO)C2)cc1)C(F)(F)F (mixture of isomers) [Example 52, 1,1,1-trifluoro-2-(4-(2-((2-(hydroxymethyl)-4-morpholinyl)methyl)-4-(2-thiophenylsulfonyl)-1-piperazinyl)phenyl)-2-propanol]	1170	1620	–	–
Cc1ccccc1S(=O)(=O)N1CCN(c2ccc(C(O)(C(F)(F)F)C(F)(F)F)cc2)CC1 [Example 4, 1,1,1,3,3,3-hexafluoro-2-(4-(4-((2-methylphenyl)sulfonyl)-1-piperazinyl)phenyl)-2-propanol]	1710	1270	–	–
